Legend:
Sprague-Dawley rats = experiment: Echocardiography in rat model of DOXO-induced cardiotoxicity; type: in vivo; details: DOXO-treated animals not receiving SH
Method: For in vivo experiments, considering that a water intake for adult rat is about 30-40 ml/day, 1.25 gr of SH extract was diluted in 300 ml of water, achieving a daily dose of […] (extract/body weight).
Adult female Sprague-Dawley rats (250-300 g body weight) were injected with six intraperitoneal doses of DOXO (Sigma) delivered at regular intervals from Day 1 to Day 11 (cumulative dose=15 mg/kg). During the treatment, rats were given ad libitum access to water containing SH. Rats received a daily dose of about 0.5 mg/Kg of SH.
Echocardiographic assessment, animals were anaesthetized at the indicated time points with 2.0-2.5% isoflurane. Transthoracic echocardiography was performed using the Vevo 2100 high-resolution imaging system (VisualSonic) equipped with a 13-24-MHz linear transducer. Analyses were performed on Days 0 (baseline), 12, 19. Two-dimensional short-axis M-mode echocardiography was performed. All M-mode tracing measurements were averaged from a minimum of three cardiac cycles. Investigators were blinded to the animals' identity.

Method for beating human iPS-CM: Traces were recorded every 24 hours for 7 consecutive days from the beginning of the DOXO treatment (day 0-3 h).

COc1cccc2c1C(=O)c1c(O)c3c(c(O)c1C2=O)C[C@@](O)(C(=O)CO)C[C@@H]3O[C@H]1C[C@H](N)[C@H](O)[C@H](C)O1 [DOXO, Doxorubicin]
left end systolic volume (LVESV) (Sprague-Dawley rats): increased over time
left ventricular ejection fraction (LVEF) (Sprague-Dawley rats): significant decrease
QT interval (beating human iPS-CM): induces prolongation on QT interval

Reference: patent US12337022B2, “Use of a vegetable extract from salvia haenkei as an active agent in the treatment of heart diseases” (Altergon S.A., priority 2021, dated 2025)
